In assay [1] the test system is Mycobacterium tuberculosis. The assay can be described thus: Antimycobacterial activity against multi drug resistant Mycobacterium tuberculosis 8666/2010 after 21 days by microdilution method. To be noted: 8666/2010, 504 h. Type of assay: functional.
Assay [2] relates to Mycobacterium tuberculosis. The assay can be described thus: microbe, parasite or virus in culture. The conditions noted are these: 234/2005, 336 h.
Assay [3] relates to Mycobacterium tuberculosis. The assay can be described thus: Antimycobacterial activity against multi drug resistant Mycobacterium tuberculosis Praha 131 after 14 days by microdilution method. In kind it is functional. To be noted: for MIC99: Praha 131, 336 h.
Assay [4] relates to Mycobacterium tuberculosis. The assay can be described thus: Antimycobacterial activity against multi drug resistant Mycobacterium tuberculosis 8666/2010 after 14 days by microdilution method. The conditions noted are these: for MIC99: 8666/2010, 336 h. In kind it is functional.
The subject of assay [5] is Mycobacterium tuberculosis. Put plainly: Antimycobacterial activity against multi drug resistant Mycobacterium tuberculosis 9449/2007 after 14 days by microdilution method. Type of assay: functional. The conditions noted are these: for MIC99: 9449/2007, 336 h.
In assay [6] the test system is Mycobacterium tuberculosis. Put plainly: Antimycobacterial activity against multi drug resistant Mycobacterium tuberculosis Praha 1 after 14 days by microdilution method. Type of assay: functional. The conditions noted are these: for MIC99: Praha 1, 336 h.
Assay [7] relates to Mycobacterium tuberculosis. The assay can be described thus: Antimycobacterial activity against multi drug resistant Mycobacterium tuberculosis Praha 4 after 14 days by microdilution method. The conditions noted are these: Praha 4, 336 h.
In assay [8] the test system is Mycobacterium tuberculosis. The assay can be described thus: Antimycobacterial activity against multi drug resistant Mycobacterium tuberculosis 9449/2007 after 21 days by microdilution method. In kind it is functional. The conditions noted are these: 9449/2007, 504 h.
Assay [9] has as its system Mycobacterium tuberculosis. Put plainly: Antimycobacterial activity against multi drug resistant Mycobacterium tuberculosis Praha 1 after 21 days by microdilution method. The conditions noted are these: Praha 1, 504 h. In kind it is functional.
Assay [10] concerns Mycobacterium tuberculosis. Put plainly: Antimycobacterial activity against multi drug resistant Mycobacterium tuberculosis Praha 131 after 21 days by microdilution method. Type of assay: functional. To be noted: Praha 131, 504 h.
Assay [11] concerns Mycobacterium tuberculosis. The assay can be described thus: Antimycobacterial activity against multi drug resistant Mycobacterium tuberculosis Praha 4 after 21 days by microdilution method. Type of assay: functional. To be noted: Praha 4, 504 h.
Assay [12] relates to Mycobacterium tuberculosis. Put plainly: Antimycobacterial activity against multi drug resistant Mycobacterium tuberculosis 234/2005 after 21 days by microdilution method. The conditions noted are these: 234/2005, 504 h. Type of assay: functional.

≈ marks a conversion by molar mass, not a printed value.

For the compound `COc1ccc(-c2nnc(SCc3cc([N+](=O)[O-])cc([N+](=O)[O-])c3)o2)cc1`, the MIC99 in [1], in [2], in assay [3], in assay [4], in assay [5] and in assay [6] was 0.06 µM (≈ 0.0233 µg/mL) in each case. In addition, the MIC99 in assay [7] stood at 0.06 µM (≈ 0.0233 µg/mL).

Take `O=[N+]([O-])c1cc(CSc2nnc(-c3ccccc3)o2)cc([N+](=O)[O-])c1`: the MIC99 in assay [2], in assay [3], in [4] and in assay [7] was at most 0.03 µM throughout.

For `CC1COc2c(N3CCN(C)CC3)c(F)cc3c(=O)c(C(=O)O)cn1c23` (stereo unspecified) [OFLOXACIN], the MIC99 in [7] is above 16 µM.

Regarding `O=[N+]([O-])c1cc(CSc2nnc(-c3ccc(Cl)cc3)s2)cc([N+](=O)[O-])c1`, the MIC99 was 0.5 µM (≈ 0.204 µg/mL) in assay [1]; 0.5 µM (≈ 0.204 µg/mL) in assay [2]; 0.5 µM (≈ 0.204 µg/mL) in assay [3]; 0.5 µM (≈ 0.204 µg/mL) in [8]; 0.25 µM (≈ 0.102 µg/mL) in [4]; 0.5 µM (≈ 0.204 µg/mL) in assay [9]. Also, the MIC99 was determined as 0.5 µM (≈ 0.204 µg/mL) in assay [10]; 0.5 µM (≈ 0.204 µg/mL) in assay [11]; 0.25 µM (≈ 0.102 µg/mL) in assay [5]; 0.5 µM (≈ 0.204 µg/mL) in [12]; 0.25 µM (≈ 0.102 µg/mL) in assay [6]; 0.25 µM (≈ 0.102 µg/mL) in [7].

As for GENTAMICIN, the MIC>99 is above 8 µM in [3], 2 µM in assay [4], 1 µM in [5] and 1 µM in [6].

For `COc1ccc(-c2nnc(SCc3cc([N+](=O)[O-])cc([N+](=O)[O-])c3)s2)cc1`, the MIC99 in assay [1] worked out at 0.125 µM (≈ 0.0506 µg/mL); in assay [2], 0.125 µM (≈ 0.0506 µg/mL); in assay [3], 0.125 µM (≈ 0.0506 µg/mL); in [8] it was 0.25 µM (≈ 0.101 µg/mL); in [4], 0.06 µM (≈ 0.0243 µg/mL); in assay [9], 0.25 µM (≈ 0.101 µg/mL). The MIC99 in assay [10] worked out at 0.25 µM (≈ 0.101 µg/mL); in assay [11], 0.25 µM (≈ 0.101 µg/mL); in assay [5], 0.125 µM (≈ 0.0506 µg/mL); in assay [12], 0.25 µM (≈ 0.101 µg/mL); in [6], 0.125 µM (≈ 0.0506 µg/mL); in [7] it was 0.125 µM (≈ 0.0506 µg/mL).

With `NCC[C@H](O)C(=O)N[C@@H]1C[C@H](N)[C@@H](O[C@H]2O[C@H](CN)[C@@H](O)[C@H](O)[C@H]2O)[C@H](O)[C@H]1O[C@H]1O[C@H](CO)[C@@H](O)[C@H](N)[C@H]1O` [AMIKACIN], in assay [3], the MIC99 is above 32 µM.

With `CO[C@H]1/C=C/O[C@@]2(C)Oc3c(C)c(O)c4c(O)c(c(/C=N/N5CCN(C)CC5)c(O)c4c3C2=O)NC(=O)/C(C)=C\C=C\[C@H](C)[C@H](O)[C@@H](C)[C@@H](O)[C@@H](C)[C@H](OC(C)=O)[C@@H]1C` [RIFAMPIN], the MIC99 in assay [2], in assay [3], in [4], in assay [5], in assay [6] and in assay [7] was above 8 µM in each case.

In the case of `CN[C@@H]1[C@H](O[C@H]2[C@H](O[C@H]3[C@H](O)[C@@H](O)[C@H](N=C(N)N)[C@@H](O)[C@@H]3N=C(N)N)O[C@@H](C)[C@]2(O)C=O)O[C@@H](CO)[C@H](O)[C@H]1O` [STREPTOMYCIN], the MIC99 in assay [3], in assay [4], in assay [5] and in [7] was above 32 µM throughout.

(Values after ChEMBL document CHEMBL3797190, “Development of 3,5-Dinitrobenzylsulfanyl-1,3,4-oxadiazoles and Thiadiazoles as Selective Antitubercular Agents Active Against Replicating and Nonreplicating Mycobacterium tuberculosis” (J Med Chem, 2016).)
